{"source": "paper PMC7468108", "about": "(Communications Biology, 2020)", "molecular_target": "T1, hIAPP (Homo sapiens, UniProt P10997)", "T1 construct": "hIAPP is a 37-amino acid neuroendocrine peptide hormone; purchased Peptide 2.0 (USA)", "T1 sequence (P10997 34-70 limits assumed)": "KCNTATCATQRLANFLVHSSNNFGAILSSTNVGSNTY", "experiment": "ThT-binding assay, inhibition of hIAPP aggregation", "format": "biochemical", "conditions": "for Normalized ThT fluorescence: hIAPP (10 µM) : molecule 1:5, average of three data sets; for % amyloid of hIAPP: hIAPP 10 µM", "description": "A similar inhibitory effect by the hybrid molecules was found toward hIAPP aggregation. […] Upon co-incubation of hIAPP with the hybrid molecules, a dose-response inhibition of hIAPP fibril formation was observed (Fig. 2d, e and Supplementary Fig. 3). […] Also, for IAPP, the marginally stronger inhibitory effect of WGalNAc was statistically significant (Supplementary Fig. 2b).\nThe resulting thin films were dissolved in PBS (100 mM, pH 7.4) and sonicated for 5 min to get a stock concentration of 50 µM, which immediately diluted to required concentration for an experiment. Stock solutions of ThT (4 mM in PBS) and hybrid molecules (10 mM in PBS) were prepared. All the stock solutions were diluted according to the requirement.\nThe experiment was performed according to the previous report. […] Kinetics fluorescence data were collected at 37 °C in triplicate using Infinite M200 microplate reader (Tecan, Switzerland), with measurements acquired at 15 min intervals. Excitation and emission wavelengths were set at 440 nm and 485 nm, respectively."}
{"smiles": "NC(Cc1c[nH]c2ccccc12)C(=O)NC(Cc1c[nH]c2ccccc12)C(=O)O", "note": "(centres unmarked) [WW]", "values": [{"measurement": "Normalized ThT fluorescence", "setting": "Time 0 h", "value": 29.978}, {"measurement": "Normalized ThT fluorescence", "setting": "Time 0.25 h", "value": -2.428}, {"measurement": "Normalized ThT fluorescence", "setting": "Time 0.5 h", "value": 312.254}, {"measurement": "Normalized ThT fluorescence", "setting": "Time 0.75 h", "value": 629.363}, {"measurement": "Normalized ThT fluorescence", "setting": "Time 1 h", "value": 980.330}, {"measurement": "Normalized ThT fluorescence", "setting": "Time 1.25 h", "value": 1609.153}, {"measurement": "Normalized ThT fluorescence", "setting": "Time 1.5 h", "value": 2335.279}, {"measurement": "Normalized ThT fluorescence", "setting": "Time 1.75 h", "value": 2857.634}, {"measurement": "Normalized ThT fluorescence", "setting": "Time 2 h", "value": 3166.885}, {"measurement": "Normalized ThT fluorescence", "setting": "Time 2.25 h", "value": 3521.809}, {"measurement": "Normalized ThT fluorescence", "setting": "Time 2.5 h", "value": 3762.743}, {"measurement": "Normalized ThT fluorescence", "setting": "Time 2.75 h", "value": 4063.191}, {"measurement": "Normalized ThT fluorescence", "setting": "Time 3 h", "value": 4256.338}, {"measurement": "Normalized ThT fluorescence", "setting": "Time 3.25 h", "value": 4441.516}, {"measurement": "Normalized ThT fluorescence", "setting": "Time 3.5 h", "value": 4588.861}, {"measurement": "Normalized ThT fluorescence", "setting": "Time 3.75 h", "value": 4641.496}, {"measurement": "Normalized ThT fluorescence", "setting": "Time 4 h", "value": 4783.902}, {"measurement": "Normalized ThT fluorescence", "setting": "Time 4.25 h", "value": 5155.140}, {"measurement": "Normalized ThT fluorescence", "setting": "Time 4.5 h", "value": 5083.691}, {"measurement": "Normalized ThT fluorescence", "setting": "Time 4.75 h", "value": 5147.945}, {"measurement": "Normalized ThT fluorescence", "setting": "Time 5 h", "value": 5383.622}, {"measurement": "Normalized ThT fluorescence", "setting": "Time 5.25 h", "value": 5413.206}, {"measurement": "Normalized ThT fluorescence", "setting": "Time 5.5 h", "value": 5636.242}, {"measurement": "Normalized ThT fluorescence", "setting": "Time 5.75 h", "value": 5718.561}, {"measurement": "Normalized ThT fluorescence", "setting": "Time 6 h", "value": 5762.151}, {"measurement": "Normalized ThT fluorescence", "setting": "Time 6.25 h", "value": 5998.572}, {"measurement": "Normalized ThT fluorescence", "setting": "Time 6.5 h", "value": 6267.216}, {"measurement": "Normalized ThT fluorescence", "setting": "Time 6.75 h", "value": 6187.949}, {"measurement": "Normalized ThT fluorescence", "setting": "Time 7 h", "value": 6251.809}, {"measurement": "Normalized ThT fluorescence", "setting": "Time 7.25 h", "value": 6421.160}, {"measurement": "Normalized ThT fluorescence", "setting": "Time 7.5 h", "value": 6518.393}, {"measurement": "Normalized ThT fluorescence", "setting": "Time 7.75 h", "value": 6603.373}, {"measurement": "Normalized ThT fluorescence", "setting": "Time 8 h", "value": 6737.364}, {"measurement": "Normalized ThT fluorescence", "setting": "Time 8.25 h", "value": 6750.786}, {"measurement": "Normalized ThT fluorescence", "setting": "Time 8.5 h", "value": 6792.841}, {"measurement": "Normalized ThT fluorescence", "setting": "Time 8.75 h", "value": 6865.131}, {"measurement": "Normalized ThT fluorescence", "setting": "Time 9 h", "value": 6824.556}, {"measurement": "Normalized ThT fluorescence", "setting": "Time 9.25 h", "value": 6905.238}, {"measurement": "Normalized ThT fluorescence", "setting": "Time 9.5 h", "value": 6910.878}, {"measurement": "Normalized ThT fluorescence", "setting": "Time 9.75 h", "value": 6951.940}, {"measurement": "Normalized ThT fluorescence", "setting": "Time 10 h", "value": 6938.219}, {"measurement": "Normalized ThT fluorescence", "setting": "Time 10.25 h", "value": 6978.295}, {"measurement": "Normalized ThT fluorescence", "setting": "Time 10.5 h", "value": 7036.631}, {"measurement": "Normalized ThT fluorescence", "setting": "Time 10.75 h", "value": 7131.130}, {"measurement": "Normalized ThT fluorescence", "setting": "Time 11 h", "value": 7205.208}, {"measurement": "Normalized ThT fluorescence", "setting": "Time 11.25 h", "value": 7201.975}, {"measurement": "Normalized ThT fluorescence", "setting": "Time 11.5 h", "value": 7247.388}, {"measurement": "Normalized ThT fluorescence", "setting": "Time 11.75 h", "value": 7228.342}, {"measurement": "Normalized ThT fluorescence", "setting": "Time 12 h", "value": 7216.738}, {"measurement": "Normalized ThT fluorescence", "setting": "Time 12.25 h", "value": 7265.266}, {"measurement": "Normalized ThT fluorescence", "setting": "Time 12.5 h", "value": 7198.053}, {"measurement": "Normalized ThT fluorescence", "setting": "Time 12.75 h", "value": 7266.511}, {"measurement": "Normalized ThT fluorescence", "setting": "Time 13 h", "value": 7230.088}, {"measurement": "Normalized ThT fluorescence", "setting": "Time 13.25 h", "value": 7204.082}, {"measurement": "Normalized ThT fluorescence", "setting": "Time 13.5 h", "value": 7254.393}, {"measurement": "Normalized ThT fluorescence", "setting": "Time 13.75 h", "value": 7295.955}, {"measurement": "Normalized ThT fluorescence", "setting": "Time 14 h", "value": 7250.976}, {"measurement": "Normalized ThT fluorescence", "setting": "Time 14.25 h", "value": 7276.851}, {"measurement": "Normalized ThT fluorescence", "setting": "Time 14.5 h", "value": 7406.119}, {"measurement": "Normalized ThT fluorescence", "setting": "Time 14.75 h", "value": 7447.878}, {"measurement": "Normalized ThT fluorescence", "setting": "Time 15 h", "value": 7365.784}, {"measurement": "% amyloid of hIAPP", "setting": "molar ratio hIAPP:tested molecule 1:1", "value": 105.600, "unit": "%"}, {"measurement": "% amyloid of hIAPP", "setting": "molar ratio hIAPP:tested molecule 1:5", "value": 115.433, "unit": "%"}, {"measurement": "% amyloid of hIAPP", "setting": "molar ratio hIAPP:tested molecule 5:1", "value": 99.082, "unit": "%"}, {"measurement": "inhibition of hIAPP fibril formation (ThT), in words", "setting": "molar ratios 5:1, 1:1, 1:5", "value": "No inhibitory effect"}]}
